In PubChem BioAssay (NCI):
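Following 48 hours of exposure in 96-well plates, responses at five concentrations were used to interpolate endpoints linearly. TGI denotes the concentration required for complete inhibition of growth.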

The compounds below were run on SF-268 CNS (assay: DTP human tumour cell line panel, 48 h).

COC1(OC)CC(CO)(CNc2nc(N)nc(Cl)c2/C=N\O)C1 and CCOC(=O)C(Cc1cn(S(=O)(=O)c2ccccc2)c2ccccc12)(NC(C)=O)C(=O)OCC cannot be ordered by TGI: > 100 µM for the first, > 100 µM for the second.

Cc1ccc2c(c1)C1(C)OC(C=CC1=O)O2 (stereo unspecified) gave a TGI of 10.3 µM.

What follows are compounds tested on SNB-75 CNS (assay: DTP human tumour cell line panel, 48 h).

First: C=C(CC[C@@H](C)[C@H]1CC[C@@]2(C)C3=C(CC[C@]12C)[C@@]1(C)CC[C@H](O)[C@@H](C)C1CC3)C(C)C (stereo partly specified)
Second: CCOP(=O)(O)C1C(CO)OC(n2ccc(=O)[nH]c2=O)C1O (stereo unspecified)
The TGI of the first is lower: 2.49 µM for the first, > 100 µM for the second.

First: CC(=O)OCCOCn1cnc2c(Cl)nc(Cl)nc21
Second: COC1(OC)CC(CO)(CNc2nc(N)nc(Cl)c2/C=N\O)C1
The TGI of the first is lower: 51.7 µM for the first, > 100 µM for the second.

First: O=C1O/C(=C(/Cl)c2cccc3ccccc23)c2ccccc21
Second: N#Cc1c(-c2ccccc2)cc(Nc2cccc(C(F)(F)F)c2)n2c1nc1ccccc12
The TGI of the first is 5.8-fold higher: 55.2 µM for the first, 9.53 µM for the second.

First: COc1ccc(N2C(=O)c3cc(C)cnc3S2(=O)=O)cc1
Second: CN(C)/C=N/S(=O)(=O)c1nn2c(C=O)c(-c3ccc(Cl)cc3)nc2s1
The TGI of the first is higher: > 100 µM for the first, 24.3 µM for the second.

Compared with CC(=O)OC1(C)C=CC(=O)C=C1, Cc1ccc2c(c1)C1(C)OC(C=CC1=O)O2 (stereo unspecified) is lower in TGI: > 100 µM for the first, 4.35 µM for the second.

Compared with COc1cc(OC)c2c(=O)c(OC)c(-c3ccc4c(c3)OCO4)oc2c1, CC1(C)CC(=O)C(/C=N/c2nc(-c3ccccc3)cs2)=C(O)C1 is higher in TGI: 33.5 µM for the first, > 100 µM for the second.

First: NC(N)=N/N=C/c1c(-c2cccc([N+](=O)[O-])c2)nc2n1CCS2
Second: CSC1=N/C(=C\c2ccccc2)C(=O)N1CN1CCCCC1
The TGI of the first is lower: 25.1 µM for the first, > 100 µM for the second.

Going from Cn1c(=O)c2[nH]c(CCCCC(=O)O)nc2n(C)c1=O to CCOC(=O)C(Cc1cn(S(=O)(=O)c2ccccc2)c2ccccc12)(NC(C)=O)C(=O)OCC, the TGI falls from > 100 µM to 33.3 µM.

O=C1C=CC=C/C1=C1\N=C(c2ccccc2OCC(=O)c2ccc(Br)cc2)SS1 and Cc1nn(C(=O)Cc2ccccc2)c2c1C(c1ccc(N(C)C)cc1)SC(N)=N2 (stereo unspecified) are within 1.5-fold of each other in TGI: 44.5 µM for the first, 32.9 µM for the second.

Cc1ccc(-c2c3nc(c(-c4ccc(C)cc4)c4ccc([nH]4)c(-c4ccc(OCC5COC(C)(C)O5)cc4)c4nc(c(-c5ccc(C)cc5)c5ccc2[nH]5)C=C4)C=C3)cc1 (stereo unspecified) and O=c1[nH]c(Nc2nc3ccccc3[nH]2)nc2c1CCC2 cannot be ordered by TGI: > 31.6 µM for the first, 77.8 µM for the second.

c1ccc(CSP234N5CCN2CCN3CCN4CC5)c(CSP234N5CCN2CCN3CCN4CC5)c1 and O=C1NCCCNCCCNCCCNC(=O)c2cccc1n2 cannot be ordered by TGI: > 100 µM for the first, > 100 µM for the second.

These compounds were tested on MDA-N (assay: DTP human tumour cell line panel, 48 h).

O=c1c2cc(S(=O)(=O)O)ccc2nc(COc2ccc(Oc3ccc(Cl)cc3Cl)cc2)n1-c1ccc(Cl)cc1Oc1c(Cl)cccc1Cl and Cc1ccc(-c2c3nc(c(-c4ccc(C)cc4)c4ccc([nH]4)c(-c4ccc(OCC5COC(C)(C)O5)cc4)c4nc(c(-c5ccc(C)cc5)c5ccc2[nH]5)C=C4)C=C3)cc1 (stereo unspecified) cannot be ordered by TGI: 99.4 µM for the first, > 31.6 µM for the second.

Compared with C=C(CC[C@@H](C)[C@H]1CC[C@@]2(C)C3=C(CC[C@]12C)[C@@]1(C)CC[C@H](O)[C@@H](C)C1CC3)C(C)C (stereo partly specified), CCOP(=O)(O)C1C(CO)OC(n2ccc(=O)[nH]c2=O)C1O (stereo unspecified) is higher in TGI: 2.33 µM for the first, > 100 µM for the second.

First: CC(=O)OCCOCn1cnc2c(Cl)nc(Cl)nc21
Second: COC1(OC)CC(CO)(CNc2nc(N)nc(Cl)c2/C=N\O)C1
The TGI of the first is lower: 32.9 µM for the first, > 100 µM for the second.

Compared with O=C1O/C(=C(/Cl)c2cccc3ccccc23)c2ccccc21, N#Cc1c(-c2ccccc2)cc(Nc2cccc(C(F)(F)F)c2)n2c1nc1ccccc12 is lower in TGI: > 100 µM for the first, 10.3 µM for the second.

COc1ccc(N2C(=O)c3cc(C)cnc3S2(=O)=O)cc1 and COc1cc(OC)c2c(=O)c(OC)c(-c3ccc4c(c3)OCO4)oc2c1 cannot be ordered by TGI: > 100 µM for the first, > 100 µM for the second.

CC(=O)OC1(C)C=CC(=O)C=C1 and CC1(C)CC(=O)C(/C=N/c2nc(-c3ccccc3)cs2)=C(O)C1 cannot be ordered by TGI: > 100 µM for the first, > 100 µM for the second.

Cn1c(=O)c2[nH]c(CCCCC(=O)O)nc2n(C)c1=O and COc1ccc(CCN2CCN(CCc3ccc(OC)cc3)CC2)cc1 cannot be ordered by TGI: > 100 µM for the first, > 100 µM for the second.

O=C1C=CC=C/C1=C1\N=C(c2ccccc2OCC(=O)c2ccc(Br)cc2)SS1 and Cc1nn(C(=O)Cc2ccccc2)c2c1C(c1ccc(N(C)C)cc1)SC(N)=N2 (stereo unspecified) cannot be ordered by TGI: > 100 µM for the first, > 100 µM for the second.

CCn1c2ccccc2n2c(=O)c3c(c(C#N)c12)CCCC3 and O=c1[nH]c(Nc2nc3ccccc3[nH]2)nc2c1CCC2 cannot be ordered by TGI: > 100 µM for the first, > 100 µM for the second.

Compared with c1ccc(CSP234N5CCN2CCN3CCN4CC5)c(CSP234N5CCN2CCN3CCN4CC5)c1, CSC1=N/C(=C\c2ccccc2)C(=O)N1CN1CCCCC1 is higher in TGI: 82.8 µM for the first, > 100 µM for the second.

NC(=S)Nc1ccc(S(=O)(=O)Nc2ccc(S(N)(=O)=O)cc2)cc1 and O=C1NCCCNCCCNCCCNC(=O)c2cccc1n2 cannot be ordered by TGI: > 100 µM for the first, > 100 µM for the second.

What follows are compounds tested on RXF 393 renal (assay: DTP human tumour cell line panel, 48 h).

Going from C=C(CC[C@@H](C)[C@H]1CC[C@@]2(C)C3=C(CC[C@]12C)[C@@]1(C)CC[C@H](O)[C@@H](C)C1CC3)C(C)C (stereo partly specified) to COc1cc(OC)c2c(=O)c(OC)c(-c3ccc4c(c3)OCO4)oc2c1, the TGI rises from 2.54 µM to 72.6 µM (29-fold).

Going from O=C1O/C(=C(/Cl)c2cccc3ccccc23)c2ccccc21 to N#Cc1c(-c2ccccc2)cc(Nc2cccc(C(F)(F)F)c2)n2c1nc1ccccc12, the TGI falls from > 100 µM to 11.9 µM.

COc1ccc(N2C(=O)c3cc(C)cnc3S2(=O)=O)cc1 and O=C1C=CC=C/C1=C1\N=C(c2ccccc2OCC(=O)c2ccc(Br)cc2)SS1 cannot be ordered by TGI: > 100 µM for the first, > 100 µM for the second.

NC(N)=N/N=C/c1c(-c2cccc([N+](=O)[O-])c2)nc2n1CCS2 and N#Cc1nc(C2=C(Cl)c3ccccc3OC2)[nH]c1C#N are within 1.5-fold of each other in TGI: 36 µM for the first, 38.8 µM for the second.

Cn1c(=O)c2[nH]c(CCCCC(=O)O)nc2n(C)c1=O was tested, and the TGI was > 100 µM.
